Earlier results in patent EP1323421A1 (priority 2001, dated 2003).
Like-named read-outs stand apart in the source and are kept apart here.

What was measured:
plasma proteins = settings: mainly to alpha and beta globulins
[1] = not given; remark: listed apart in the source
[2] = in vivo
[3] = not given; remark: listed apart in the source
[4] = intravenous single dose of about 0.3 mg

In the case of CO[C@]12CC[C@@]3(C[C@@H]1[C@](C)(O)C(C)(C)C)[C@H]1Cc4ccc(O)c5c4[C@@]3(CCN1CC1CC1)[C@H]2O5 [buprenorphine, 21-cyclopropyl-7.varies.-[(S)-1-hydroxy-1,2,2-trimethylpropyl]-6,14-endo-e thano-6,7,8,14-tetrahydrooripavine], the Tmax (0.4 mg sublingual dose) is listed as 210.+-.40 minutes, the systemic availability (0.4 mg sublingual dose) is listed as 57.7% and the Tmax (0.8 mg sublingual dose) is listed as 192.+-.49 minutes. The systemic availability (0.8 mg sublingual dose) was 54.1%, the Total plasma clearance (conscious postoperative patients) was “approximately 1.28 I/minute” and the hepatic extraction ratio (in vivo) was “approximately 1”. The Oral bioavailability (in vivo, po) was ~15%, the “mean peak plasma buprenorphine concentrations” value (intramuscular second 0.3-mg dose 3 hours after the initial intravenous dose) was “about 3.6 ng/ml” and the plasma concentrations (intramuscular second 0.3-mg dose, after about 3 hours) was “about 0.4 ng/ml”. For the same molecule, the plasma concentrations (intravenous about 0.3 mg, after about 5 minutes) was “about 9 ng/ml”, the plasma concentrations (intravenous about 0.3 mg, after about 3 hours) was “about 0.4 ng/ml” and the “mean peak plasma drug concentrations” value [4] was “about 18 ng/ml”. For the same molecule, the “time of mean peak plasma drug concentrations” value [4] was ≤ 2 min, the “bound to plasma proteins” value (plasma proteins) was “approximately 96%” and the “time to highest concentrations in the liver” value ([1]; intramuscular administration in rats) was ≤ 40 min. For the same molecule, the “time to highest concentrations in the liver” value ([1]; oral administration in rats) was ≤ 10 min, the “analgesic potency relative to meperidine” value [2] was “about 600 times” and the “analgesic potency relative to pentazocine” value [2] was “about 200 times”. The “mean duration of analgesia” value [2] was “six”, the “influence on the function of bladder or urethra” value ([3]; epidural application, 4 µg/kg (Batra) or 2 µg/kg (Drenger [with dogs])) was “does not have a significant influence” and the “cases showing urinary retention” value ([3]; i.v. application of 0.3 mg, patients of approx. 70 kg (4.3 µg/kg), Malinovsky) was 5 out of 10. The urinary retention ([3]; sublingual application of 400µg (~ 5.7 µg/kg), case shown by Murray) was “urinary retention was seen”.
